# Values quoted from earlier work as cited in patent publication US20220356443A1, “PRODUCTION METHOD FOR CEREBRAL ORGANOID” (KEIO UNIVERSITY, priority 2019, published 2022).
# System: deposits of amyloid β peptide
# Details: relative to thioflavin-T; general statement on the staining reagent
smiles,measurement,value
"CNc1ccc(-c2nc3ccccc3s2)cc1 [BTA-1, 2-(4′-methylaminophenyl)benzothiazole]","affinity to deposits of amyloid β peptide, higher than that of thioflavin-T",about 50 times
